# Source: patent publication US10131657B2, “Bromodomain inhibitors” (AbbVie Inc., priority 2013, dated 2018)
# System: breast cancer cell line MX-1
# Test: MX-1 cell line proliferation assay, Method A
# Assay type: cell-based
# Settings: Homo sapiens, MX1; MX-1 cells, 96-well, 72 hours, Cell Titer Glo; read-out: Cellular proliferation: EC50 Method A
# Procedure: The impact of compounds of the Examples on cancer cell proliferation was determined using the breast cancer cell line MX-1 (ATCC) in a 3-day proliferation assay and the data are reported in Table 1.
# MX-1 cells were maintained in RPMI 1640 medium (Sigma) supplemented with 10% FBS at 37° C. and an atmosphere of 5% CO2. For compound testing, MX-1 cells were plated in 96-well black bottom plates at a density of 5000 cells/well in 90 μL of culture media and incubated at 370 overnight to allow cell adhesion and spreading. Compound dilution series were prepared in DMSO via a 3-fold serial dilution from 3 mM to 0.1 μM. The DMSO dilution series were then diluted 1:100 in phosphate buffered saline, and 10 μL of the resulted solution were added to the appropriate wells of the MX-1 cell plate. The final compound concentrations in the wells were 3, 1, 0.3, 0.1, 0.03, 0.01, 0.003, 0.001, 0.0003 and 0.0001 μM.
# Luminescence readings from the Cell Titer Glo assay were normalized to the DMSO treated cells and analyzed using the GraphPad Prism software with sigmoidal curve fitting to obtain ECs50s. The minimum significant ratio (MSR) was determined to evaluate assay reproducibility (Eastwood et al., (2006) J Biomol Screen, 11: 253-261).
row,Structure (SMILES),EC50 [nM]
1,"Cc1cc(-c2ccc(-c3cn(C)c(=O)c4[nH]ccc34)c(OCC3CC3)c2)[nH]n1 [Example 1, 4-[2-(cyclopropylmethoxy)-4-(3-methyl-1H-pyrazol-5-yl)phenyl]-6-methyl-1,6-dihydro-7H-pyrrolo[2,3-c]pyridin-7-one]",151
2,"CCS(=O)(=O)Nc1cc(-c2cn(C)c(=O)c3[nH]ccc23)c(Oc2ccc(F)cc2F)cc1CN1CCCC1c1ccccc1 (centres unmarked) [Example 14, N-{4-(2,4-difluorophenoxy)-5-(6-methyl-7-oxo-6,7-dihydro-1H-pyrrolo[2,3-c]pyridin-4-yl)-2-[(2-phenylpyrrolidin-1-yl)methyl]phenyl}ethanesulfonamide]",184
3,"CCS(=O)(=O)Nc1cc(-c2cn(C)c(=O)c3[nH]ccc23)c(Oc2ccc(F)cc2F)c(C2CC2)c1 [Example 15, N-[3-cyclopropyl-4-(2,4-difluorophenoxy)-5-(6-methyl-7-oxo-6,7-dihydro-1H-pyrrolo[2,3-c]pyridin-4-yl)phenyl]ethanesulfonamide]",105
4,"CCS(=O)(=O)c1ccc(OCC2CC2(F)F)c(-c2cn(C)c(=O)c3[nH]c(CN4CCN(c5ccncc5)CC4)cc23)c1 (centres unmarked) [Example 16, 4-{2-[(2,2-difluorocyclopropyl)methoxy]-5-(ethylsulfonyl)phenyl}-6-methyl-2-{[4-(pyridin-4-yl)piperazin-1-yl]methyl}-1,6-dihydro-7H-pyrrolo[2,3-c]pyridin-7-one]",202
5,"CCS(=O)(=O)c1ccc(OCC2CC2(F)F)c(-c2cn(C)c(=O)c3[nH]c(CN4CCN(c5cccnc5)CC4)cc23)c1 (centres unmarked) [Example 20, 4-{2-[(2,2-difluorocyclopropyl)methoxy]-5-(ethylsulfonyl)phenyl}-6-methyl-2-{[4-(pyridin-3-yl)piperazin-1-yl]methyl}-1,6-dihydro-7H-pyrrolo[2,3-c]pyridin-7-one]",101
6,"Cn1cc(-c2cc(S(C)(=O)=O)ccc2Oc2cccc(C(=O)NC3CC3)c2)c2cc[nH]c2c1=O [Example 21, N-cyclopropyl-3-[2-(6-methyl-7-oxo-6,7-dihydro-1H-pyrrolo[2,3-c]pyridin-4-yl)-4-(methylsulfonyl)phenoxy]benzamide]",487
7,"CN1CCN(C(=O)c2cccc(Oc3ccc(S(C)(=O)=O)cc3-c3cn(C)c(=O)c4[nH]ccc34)c2)CC1 [Example 22, 6-methyl-4-[2-{3-[(4-methylpiperazin-1-yl)carbonyl]phenoxy}-5-(methylsulfonyl)phenyl]-1,6-dihydro-7H-pyrrolo[2,3-c]pyridin-7-one]",> 1000
8,"Cn1cc(-c2cc(S(C)(=O)=O)ccc2Oc2cccc(C(=O)N3CCN(CCn4ccnc4)CC3)c2)c2cc[nH]c2c1=O [Example 23, 4-{2-[3-({4-[2-(1H-imidazol-1-yl)ethyl]piperazin-1-yl}carbonyl)phenoxy]-5-(methylsulfonyl)phenyl}-6-methyl-1,6-dihydro-7H-pyrrolo[2,3-c]pyridin-7-one]",> 1000

# Next, values leading:
row,EC50 [nM],Structure (SMILES)
1,110,"CCS(=O)(=O)Nc1cc(-c2cn(C)c(=O)c3[nH]ccc23)c(Oc2ccc(F)cc2F)cc1CN(C)C [Example 2, N-[4-(2,4-difluorophenoxy)-2-[(dimethylamino)methyl]-5-(6-methy-7-oxo-6,7-dihydro-1H-pyrrolo[2,3-c]pyridin-4-yl)phenyl]ethanesulfonamide]"
2,36.8,"CCS(=O)(=O)Nc1cc(-c2cn(C)c(=O)c3[nH]ccc23)c(Oc2ccc(F)cc2F)cc1CN1CCCCC1 [Example 3, N-[4-(2,4-difluorophenoxy)-5-(6-methyl-7-oxo-6,7-dihydro-1H-pyrrolo[2,3-c]pyridin-4-yl)-2-(piperidin-1-ylmethyl)phenyl]ethanesulfonamide]"
3,16.3,"CCS(=O)(=O)Nc1cc(-c2cn(C)c(=O)c3[nH]ccc23)c(Oc2ccc(F)cc2F)cc1CN1CCOCC1 [Example 4, N-[4-(2,4-difluorophenoxy)-5-(6-methyl-7-oxo-6,7-dihydro-1H-pyrrolo[2,3-c]pyridin-4-yl)-2-(morpholin-4-ylmethyl)phenyl]ethanesulfonamide]"
4,40.1,"CCS(=O)(=O)Nc1cc(-c2cn(C)c(=O)c3[nH]ccc23)c(Oc2ccc(F)cc2F)cc1CN1CCN(C)CC1 [Example 5, N-{4-(2,4-difluorophenoxy)-5-(6-methyl-7-oxo-6,7-dihydro-1H-pyrrolo[2,3-c]pyridin-4-yl)-2-[(4-methylpiperazin-1-yl)methyl]phenyl}ethanesulfonamide]"
5,29.1,"CCS(=O)(=O)Nc1cc(-c2cn(C)c(=O)c3[nH]ccc23)c(Oc2ccc(F)cc2F)cc1CO [Example 6, N-[4-(2,4-difluorophenoxy)-2-(hydroxymethyl)-5-(6-methyl-7-oxo-6,7-dihydro-1H-pyrrolo[2,3-c]pyridin-4-yl)phenyl]ethanesulfonamide]"
6,139,"CCS(=O)(=O)Nc1cc(-c2cn(C)c(=O)c3[nH]ccc23)c(Oc2ccc(F)cc2F)cc1CNC1CCCC1 [Example 7, N-{2-[(cyclopentylamino)methyl]-4-(2,4-difluorophenoxy)-5-(6-methyl-7-oxo-6,7-dihydro-1H-pyrrolo[2,3-c]pyridin-4-yl)phenyl}ethanesulfonamide]"
7,44.9,"CCS(=O)(=O)Nc1cc(-c2cn(C)c(=O)c3[nH]ccc23)c(Oc2ccc(F)cc2F)cc1C(N)=O [Example 8, 5-(2,4-difluorophenoxy)-2-[(ethylsulfonyl)amino]-4-(6-methyl-7-oxo-6,7-dihydro-1H-pyrrolo[2,3-c]pyridin-4-yl)benzamide]"
8,65.3,"CCS(=O)(=O)Nc1cc(-c2cn(C)c(=O)c3[nH]ccc23)c(Oc2ccc(F)cc2F)cc1C(=O)NC1CCCC1 [Example 9, N-cyclopentyl-5-(2,4-difluorophenoxy)-2-[(ethylsulfonyl)amino]-4-(6-methyl-7-oxo-6,7-dihydro-1H-pyrrolo[2,3-c]pyridin-4-yl)benzamide]"
9,98.2,"CCS(=O)(=O)Nc1cc(-c2cn(C)c(=O)c3[nH]ccc23)c(Oc2ccc(F)cc2F)cc1C(=O)N(C)C [Example 10, 5-(2,4-difluorophenoxy)-2-[(ethylsulfonyl)amino]-N,N-dimethyl-4-(6-methyl-7-oxo-6,7-dihydro-1H-pyrrolo[2,3-c]pyridin-4-yl)benzamide]"
10,452,"CCS(=O)(=O)Nc1cc(-c2cn(C)c(=O)c3[nH]ccc23)c(Oc2ccc(F)cc2F)cc1C(=O)O [Example 11, 5-(2,4-difluorophenoxy)-2-[(ethylsulfonyl)amino]-4-(6-methyl-7-oxo-6,7-dihydro-1H-pyrrolo[2,3-c]pyridin-4-yl)benzoic acid]"
11,68.4,"CCS(=O)(=O)Nc1cc(-c2cn(C)c(=O)c3[nH]ccc23)c(Oc2ccc(F)cc2F)cc1C(=O)NC1CCOCC1 [Example 12, 5-(2,4-difluorophenoxy)-2-[(ethylsulfonyl)amino]-4-(6-methyl-7-oxo-6,7-dihydro-1H-pyrrolo[2,3-c]pyridin-4-yl)-N-(tetrahydro-2H-pyran-4-yl)benzamide]"
12,307,"CCS(=O)(=O)Nc1cc(-c2cn(C)c(=O)c3[nH]ccc23)c(Oc2ccc(F)cc2F)cc1CNCCO [Example 13, N-[4-(2,4-difluorophenoxy)-2-{[(2-hydroxyethyl)amino]methyl}-5-(6-methyl-7-oxo-6,7-dihydro-1H-pyrrolo[2,3-c]pyridin-4-yl)phenyl]ethanesulfonamide]"
